Values quoted from earlier work in US5370879A, “Formulations and their use in the treatment of neurological diseases” (Elan Corporation, plc, priority 1990, dated 1994).

Tests used:
[1] = system: MS patients; conditions: orally in multiple daily doses
[2] = system: MS patients
[3] = system: potassium ion flow in nerve impulse transmission
[4] = system: patients with Alzheimer's disease
[5] = orally in multiple daily doses over 2-5 days

Compound	specific neurological deficits [1]	visual evoked response latencies [1]	conduction of nerve impulses [2]	symptoms in MS patients [2]	improvements noted in clinical trials [2, 5]	side effects [2, 5]	conduction in blocked demyelinated nerves [3]	potassium ion flow in nerve impulse transmission [3]	mental functions [4]
Nc1ccncc1N [3,4-DAP, 3,4-Di-aminopyridine]	improve specific neurological deficits	improve	–	–	–	–	–	–	–
Nc1ccncc1 [Example 4-AP, 4-Aminopyridine]	–	–	improve the conduction of nerve impulses	alleviating symptoms in MS patients	mild to marked improvements	minimal side effects	effective in restoring conduction in blocked demyelinated nerves	slow the potassium ion flow	improve the mental functions
